CC50 and IC50 data for 16 compounds are collected here from patent US20020061896A1, “Imidazopyrimidine nucleoside analogues with anti-HIV activity” (priority 1999, published 2002).

Common to all, as to assay type: cell-based
Series [1] is described as follows: Cytotoxicity using T cells.
Series [2] concerns HIV. In words: Antiviral activity using T cells. To be noted: Human immunodeficiency virus 1, T-cell. On the procedure:
(§1) HIV-1 infection assays with cell lines.
(§2) Laboratory strains of HIV-1, HIV-2, simian immunodeficiency virus, strains with know resistance to indicated drugs, or a low-passage (clinically derived) isolates are used to infect established cell lines by using a specific multiplicity of infection (MOI) of the virus for 1 hour at 37° C. prior to washing the cells and resuspension in medium containing increasing concentrations of drug (or test compound). At 4 to 6 days post-infection, drug-treated and control wells are analyzed for an HIV-1 induced cytopathic effect and/or for the presence of viral reverse transcriptase (RT) or viral p24 antigen in the culture medium (Buckheit and Swanstrom 1991; Ojwang et al. 1994, 1995a, Rando et al. 1995).

For the next series, the system named is HIV-1. In words: Antiviral activity (HIV-1 infection assays with cell lines). To be noted: Human immunodeficiency virus 1. On the procedure:
as §1, §2

Series [3] in a line: Cytotoxicity (table Antiviral Activity & Cytotoxicity). As to conditions: established cell lines.
Series [4] relates to HIV. In words: HIV infection assay in cell lines (MT-2, MT-4, Jurkat). The protocol:
as §1, §2

Series [5] can be described thus: Cytotoxicity in MT-2 cells. As to conditions: human.
A short description of a further series: Cytotoxicity in PBMCs. As to conditions: human. On the procedure:
(§3) Peripheral blood mononuclear cells (PBMCs), Core blood mononuclear cells (CBMCs) and peripheral blood lymphocytes (PBLs) are isolated from the blood of HIV-1 negative and hepatitis B virus-negative (healthy) donors by using the Ficoll-Hypaque density gradient centrifugation technique and are then cultured as described by Gartner and Popovic (1990).

Series [6] has as its system HIV. In words: HIV infection of PBMCs. As to conditions: Human immunodeficiency virus 1, PBMC, read-out: HIV IC50 (uM) PBMCs. On the procedure: HIV-1 infection of PBMCs, CBMCs, and PBL.
as §3
PBMCs or CBMCs (2×10^5 cells/well) were infected with various isolates of HIV-1 at an MOI of 0.01. After 2 hours at 37C the cells are washed and treated with various concentrations of drug or test compound (Buckheit and Swanstrom 1991; Ojwang et al. 1995a). Seven days post-infection, HIV-1 replication was analyzed by the measuring the levels of RT or p24 in the culture medium.

The mark [7] stands for this setting: antiviral activity, read-out: IC50.
Setting [8] is: Human immunodeficiency virus 1, MT2, read-out: HIV IC50 (uM) MT-2.
Where [9] appears, read: peripheral blood mononuclear cells (PBMCs), read-out: CC50 (uM) PBMCs.

Where a name gives a salt, the structure may show the parent alone. Read-outs that look alike come from different tables or passages of the source.

For the compound `O=c1n(C2CO[C@H](CO)O2)ccc2nc(-c3ccc(F)cc3)cn12` (stereo in doubt) [Compound 43, 2-(4-FLUOROPHENYL)-6-[(2S,4S)-2- HYDROXYMETHYL-1,3-DIOXOLAN-4-YL]- 5,6-DIHYDRO[1,3]DIAZOLO[1,2- C][1,3]DIAZIN-5-ONE], the CC50 in series [1] was over 100 µM. The same compound returned an IC50 with HIV [2] of 0.31 µM.
In the case of `O=c1n([C@H]2CO[C@@H](CO)O2)cc(F)c2nc(-c3ccc(F)cc3)cn12` (stereo in doubt) [Compound 48], the IC50 in the series with HIV-1 (setting [7]) and in the series on HIV [2] was 0.026 µM in each case. Also, the CC50 in series [1] and in series [3] was over 100 µM in each case.
Take `O=c1n([C@@H]2CC[C@H](CO)O2)ccc2nc(-c3ccc([N+](=O)[O-])cc3)cn12` [Compound 31, 6-[(2S,5R)-5-HYDROXYMETHYL OXOLAN-2-YL]-2-(4-NITROPHENYL)-5,6- DIHYDRO[1,3]-DIAZOLO[1,2-C][1,3]DIAZIN-5-ONE]: in series [1], the midpoint of cytotoxicity, the CC50, lay at 45 µM. Besides, in the series on HIV [2], the 50% inhibitory concentration (IC50) turned out to be 9.7 µM.
The like results for `O=c1n([C@H]2CC[C@@H](CO)O2)ccc2nc(-c3ccc([N+](=O)[O-])cc3)cn12` [Compound 32, 2-(4- NITROPHENYL)-6-[(2R,5S)-5- HYDROXYMETHYLOXOLAN-2-YL]-5,6- DIHYDRO[1,3]-DIAZOLO[1,2-C][1,3]DIAZIN-5-ONE] were, in that order, over 100 µM and 7 µM.
`O=c1n([C@@H]2CC[C@H](CO)O2)cc(F)c2nc(-c3ccc(F)cc3)cn12` [Compound 33, 8-FLUORO-2-(4-FLUOROPHENYL)-6- [(5R,2S)-5-HYDROXYMETHYL OXOLAN- 2-YL]-5,6-DIHYDRO[1,3]DIAZOLO[1,2- C][1,3]DIAZIN-5-ONE] showed a CC50 in series [1] of 90 µM. In addition, in the series with HIV [2], half-maximal inhibition (IC50) required 4 µM.
The like results for `O=c1n([C@H]2CC[C@@H](CO)O2)cc(F)c2nc(-c3ccc([N+](=O)[O-])cc3)cn12` [Compound 36, 8-FLUORO-2-(4-NITROPHENYL)-6- [(2R,5S)-5-HYDROXYMETHYL OXOLAN- 2-YL]-5,6-DIHYDRO[1,3]-DIAZOLO[1,2- C][1,3]DIAZIN-5-ONE] were, in that order, over 100 µM and 1 µM.
As to `O=c1n([C@H]2CO[C@@H](CO)O2)ccc2nc(-c3ccc(F)cc3)cn12` [Compound 44, 2-(4-FLUOROPHENYL)-6-[(2R,4R)-2- HYDROXYMETHYL-1,3-DIOXOLAN-4-YL]- 5,6-DIHYDRO[1,3]DIAZOLO[1,2- C][1,3]DIAZIN-5-ONE], the IC50 came to 0.003 µM in the series with HIV-1 (setting [7]) and 0.0032 µM in the series with HIV [2]. Also, the CC50 in series [1] and in series [3] was over 100 µM each time.
Consider `O=c1n([C@@H]2CO[C@H](CO)O2)ccc2nc(-c3ccc([N+](=O)[O-])cc3)cn12` [Compound 45, L2-(4-NITROPHENYL)-6-[(2S,4S)-2- HYDROXYMETHYL-1,3-DIOXOLAN-4-YL]- 5,6-DIHYDRO[1,3]DIAZOLO[1,2- C][1,3]DIAZIN-5-ONE], for which the IC50 amounted to 3 µM with HIV [4] (setting [8]) and 0.25 µM in the series with HIV [2]. Further, the CC50 is 10 µM in series [1] and 2 µM in series [5].
Regarding `O=c1n([C@H]2CO[C@@H](CO)O2)ccc2nc(-c3ccc([N+](=O)[O-])cc3)cn12` [Compound 46, 2-(4-NITROPHENYL)-6-[(2R,4R)-2- HYDROXYMETHYL-1,3-DIOXOLAN-4-YL]- 5,6-DIHYDRO[1,3]DIAZOLO[1,2- C][1,3]DIAZIN-5-ONE], the IC50 with HIV-1 (setting [7]) and in the series on HIV [2] was 0.1 µM throughout. Moreover, the CC50 in series [1] and in series [3] was over 100 µM in each case.
As for `O=c1n([C@@H]2CO[C@H](CO)O2)cc(F)c2nc(-c3ccc([N+](=O)[O-])cc3)cn12` [Compound 49], the IC50 in the series with HIV [4] (Human immunodeficiency virus 1, Jurkat, read-out: HIV IC50 (uM) Jurkat) amounted to 0.24 µM; in the series on HIV [4] (setting [8]) it was 0.13 µM; in the series on HIV [4] (Human immunodeficiency virus 1, MT4, read-out: HIV IC50 (uM) (MT-4)), 0.015 µM; in the series with HIV-1 it was 0.005 µM. For the same compound, the CC50 in the series “Cytotoxicity in PBMCs” (setting [9]) is under 10 µM; in series [5], 6.5 µM.
Take `O=c1n([C@H]2CO[C@@H](CO)O2)cc(F)c2nc(-c3ccc([N+](=O)[O-])cc3)cn12` [Compound 50]: the IC50 came out at 2.8 µM in the series with HIV [4] (setting [8]), 0.44 µM in the series with HIV-1 (setting [7]) and 0.44 µM in the series on HIV [2]. Besides, the CC50 is over 100 µM in series [1], over 100 µM in series [3] and over 10 µM in series [5].
For `O=c1n([C@H]2CO[C@H](CO)O2)ccc2nc(-c3ccc([N+](=O)[O-])cc3)cn12` [Compound 53], in series [1], the CC50 is over 10 µM. The compound also came in with an IC50 in the series with HIV [2] of 0.4 µM.
With `O=c1n([C@H]2CO[C@H](CO)O2)cc(F)c2nc(-c3ccc(F)cc3)cn12` [Compound 55], the cytotoxic concentration (CC50) in series [1] was over 100 µM. Besides, the half-maximal inhibitory concentration (IC50) with HIV [2] amounted to 48 µM.
`O=c1n([C@@H]2CO[C@@H](CO)O2)cc(F)c2nc(-c3ccc([N+](=O)[O-])cc3)cn12` [Compound 58]: the IC50 in the series with HIV-1 and with HIV [2] was 60 µM each time. In addition, the CC50 in series [1] and in series [3] was over 100 µM in each case.
Compound `CC(C)[C@H](N)C(=O)OCC1OC[C@H](n2ccc3nc(-c4ccc(F)cc4)cn3c2=O)O1` (some centres unmarked) [Compound 60, 2-AMINO-3-METHYL-BUTYRIC ACID 4-[2- (4-FLUORO-PHENYL)-5-OXO-IMIDAZO [1,2-C]PYRIMIDIN-6-YL]-[1,3]DIOXOLAN-2- YLMETHYL ESTER; HYDROCHLORIDE SALT] returned a CC50 in the series “Cytotoxicity in PBMCs” of over 10 µM. In the series with HIV [6], the IC50 was found to be 0.6 µM.
On to `O=c1n([C@H]2CO[C@@H](CO)O2)ccc2nc(-c3ccccc3)cn12` [Compound 62, 6-(2-HYDROXYMETHYL-[1,3]DIOXOLAN- 4-YL)-2-PHENYL-6H-IMIDAZO[1,2-C]PYRIMIDIN-5-ONE], for which the CC50 in the series “Cytotoxicity in PBMCs” (setting [9]) is over 10 µM. Besides, in the series on HIV [6] (PBMCs), the IC50 was found to be 8 µM.

The CC50 is the concentration giving 50% cytotoxicity. By IC50 is commonly meant the concentration at which inhibition is half-maximal.
